Assay results from US20120071475A1, “UREA DERIVATIVES HAVING PI3K-INHIBITING ACTIVITY” (SHIONOGI & CO., LTD., priority 2009, published 2012).
Read-outs that look alike come from different tables or passages of the source.

How the values were obtained:
PI3Kα = PI3Kα (Homo sapiens, UniProt P42336); test: PI3Kα inhibitory activity (Ki value); assay type: biochemical
Procedure: (§1) According to Example 2 above, after 80 μg/mL PI-3 kinase γ of the enzyme solution (80 μg/mL PI-3 kinase γ, 10 mmol/L MgCl2, 5 mmol/L DTT) was changed to 0.8 μg/mL PI-3 kinase α, an inhibition ratio was calculated by a method similar to the method for measuring PI3Kγ inhibitory activity, and then defined as the PI3Kα inhibitory activity.
The α inhibitory activity (Ki value) of a compound was evaluated according to the following procedure.
According to Example 4 above, a Km value for PI3Kα was determined to calculate a Ki value.

PI3Kγ = PI3Kγ (Homo sapiens, UniProt P48736); test: PI3Kγ inhibitory activity (Ki value); assay type: biochemical
Sequence of PI3Kγ (P48736 whole entry, species assumed): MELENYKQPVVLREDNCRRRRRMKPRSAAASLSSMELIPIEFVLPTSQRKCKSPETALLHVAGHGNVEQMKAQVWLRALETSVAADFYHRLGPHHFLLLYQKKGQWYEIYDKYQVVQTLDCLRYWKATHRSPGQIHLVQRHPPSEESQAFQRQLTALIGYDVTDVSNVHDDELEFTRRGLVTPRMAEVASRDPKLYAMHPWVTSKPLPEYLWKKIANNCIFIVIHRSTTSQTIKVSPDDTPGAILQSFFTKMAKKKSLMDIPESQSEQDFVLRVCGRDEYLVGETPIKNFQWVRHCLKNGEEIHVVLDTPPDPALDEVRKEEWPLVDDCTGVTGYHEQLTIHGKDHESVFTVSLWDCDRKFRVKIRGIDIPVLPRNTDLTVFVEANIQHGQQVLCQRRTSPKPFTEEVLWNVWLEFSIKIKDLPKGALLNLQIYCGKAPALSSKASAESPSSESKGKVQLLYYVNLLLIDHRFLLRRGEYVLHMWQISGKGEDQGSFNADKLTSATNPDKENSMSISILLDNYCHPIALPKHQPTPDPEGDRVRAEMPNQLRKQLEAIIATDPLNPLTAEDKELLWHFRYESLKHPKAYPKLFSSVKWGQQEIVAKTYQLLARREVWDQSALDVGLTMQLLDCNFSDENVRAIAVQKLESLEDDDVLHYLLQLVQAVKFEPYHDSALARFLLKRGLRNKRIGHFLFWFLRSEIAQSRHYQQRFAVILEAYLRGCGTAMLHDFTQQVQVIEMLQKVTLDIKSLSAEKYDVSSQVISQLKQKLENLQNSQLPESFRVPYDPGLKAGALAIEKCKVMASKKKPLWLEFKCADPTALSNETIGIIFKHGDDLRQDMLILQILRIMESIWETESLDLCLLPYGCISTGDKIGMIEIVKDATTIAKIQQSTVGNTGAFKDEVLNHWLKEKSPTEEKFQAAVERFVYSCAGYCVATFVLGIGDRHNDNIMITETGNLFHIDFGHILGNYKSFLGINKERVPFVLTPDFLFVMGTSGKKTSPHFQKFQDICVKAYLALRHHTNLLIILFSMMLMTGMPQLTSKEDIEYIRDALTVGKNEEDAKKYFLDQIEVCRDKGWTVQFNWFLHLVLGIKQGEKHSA
In short: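 Ki derived from IC50 measured at final compound levels of 50–0.05 μmol/L (HTRF read-out; 40 μmol/L ATP, 10 mmol/L MgCl2, 5 mmol/L DTT), IC50 by logistic or two-point linear fit. ATP Km from Lineweaver-Burk over 0.625–80 μmol/L ATP; Ki = IC50/(1+[ATP]/Km).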

PI3Kδ = PI3Kδ (Homo sapiens, UniProt O00329); test: PI3Kδ inhibitory activity (Ki value); assay type: biochemical
Sequence of PI3Kδ (O00329 whole entry, species assumed): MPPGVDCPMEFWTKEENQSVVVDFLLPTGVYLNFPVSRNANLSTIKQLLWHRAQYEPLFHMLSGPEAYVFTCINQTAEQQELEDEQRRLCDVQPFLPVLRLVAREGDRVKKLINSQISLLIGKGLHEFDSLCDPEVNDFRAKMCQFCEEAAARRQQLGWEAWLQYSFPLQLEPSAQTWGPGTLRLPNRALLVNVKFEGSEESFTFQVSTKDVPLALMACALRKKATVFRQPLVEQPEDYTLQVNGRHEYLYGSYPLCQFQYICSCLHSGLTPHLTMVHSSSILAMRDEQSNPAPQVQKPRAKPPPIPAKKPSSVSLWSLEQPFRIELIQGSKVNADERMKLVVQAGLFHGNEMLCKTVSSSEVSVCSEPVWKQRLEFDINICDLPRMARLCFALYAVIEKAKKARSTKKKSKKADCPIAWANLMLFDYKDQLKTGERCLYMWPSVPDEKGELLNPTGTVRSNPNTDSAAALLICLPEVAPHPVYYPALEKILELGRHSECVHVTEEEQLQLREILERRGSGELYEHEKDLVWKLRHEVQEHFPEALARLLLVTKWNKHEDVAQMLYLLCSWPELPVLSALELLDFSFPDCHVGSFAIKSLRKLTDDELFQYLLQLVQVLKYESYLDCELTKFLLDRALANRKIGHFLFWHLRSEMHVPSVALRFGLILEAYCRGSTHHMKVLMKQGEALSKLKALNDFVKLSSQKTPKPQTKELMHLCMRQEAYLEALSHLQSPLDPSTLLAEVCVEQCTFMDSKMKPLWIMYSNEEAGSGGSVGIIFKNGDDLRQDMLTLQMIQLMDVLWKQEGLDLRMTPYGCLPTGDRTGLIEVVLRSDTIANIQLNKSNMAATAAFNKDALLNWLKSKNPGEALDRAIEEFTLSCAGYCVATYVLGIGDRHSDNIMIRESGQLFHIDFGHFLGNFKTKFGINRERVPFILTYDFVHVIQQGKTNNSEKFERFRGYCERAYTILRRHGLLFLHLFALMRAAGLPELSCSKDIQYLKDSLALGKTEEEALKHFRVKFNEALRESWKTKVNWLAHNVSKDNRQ
Sequence of PI3Kδ (P27986 whole entry partner, species assumed): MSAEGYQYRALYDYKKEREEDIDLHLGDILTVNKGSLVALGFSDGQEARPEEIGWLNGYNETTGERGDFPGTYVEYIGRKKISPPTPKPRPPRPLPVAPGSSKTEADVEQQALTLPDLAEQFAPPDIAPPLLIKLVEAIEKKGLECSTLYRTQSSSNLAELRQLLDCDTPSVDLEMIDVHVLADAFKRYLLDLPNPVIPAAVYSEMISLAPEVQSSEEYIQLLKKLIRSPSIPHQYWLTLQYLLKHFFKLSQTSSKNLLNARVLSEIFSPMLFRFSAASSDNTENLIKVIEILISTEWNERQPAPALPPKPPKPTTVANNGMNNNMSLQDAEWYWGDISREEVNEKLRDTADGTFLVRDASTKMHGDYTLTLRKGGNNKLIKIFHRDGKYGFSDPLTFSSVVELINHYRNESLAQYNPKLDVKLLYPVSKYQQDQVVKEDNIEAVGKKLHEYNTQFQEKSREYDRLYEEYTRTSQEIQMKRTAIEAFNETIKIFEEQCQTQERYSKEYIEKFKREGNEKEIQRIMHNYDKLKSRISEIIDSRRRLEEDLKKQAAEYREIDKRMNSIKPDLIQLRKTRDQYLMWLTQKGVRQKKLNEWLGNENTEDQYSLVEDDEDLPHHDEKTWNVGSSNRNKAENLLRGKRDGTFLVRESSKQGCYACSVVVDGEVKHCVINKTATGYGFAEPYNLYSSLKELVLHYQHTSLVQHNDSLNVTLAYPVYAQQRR
Procedure: as §1, with “158” for “0.8”, “δ,” for “α, an inhibition ratio was calculated by”, “activity was used to calculate an inhibition ratio, which was” for “activity, and then”, “PI3Kδ” for “PI3Kα”
According to Example 4 above, a Km value for PI3Kδ was determined to calculate a Ki value.

PI3Kβ = PI3Kβ (Homo sapiens, UniProt P42338); test: PI3Kβ inhibitory activity (Ki value); assay type: biochemical
Sequence of PI3Kβ (P42338 whole entry, species assumed): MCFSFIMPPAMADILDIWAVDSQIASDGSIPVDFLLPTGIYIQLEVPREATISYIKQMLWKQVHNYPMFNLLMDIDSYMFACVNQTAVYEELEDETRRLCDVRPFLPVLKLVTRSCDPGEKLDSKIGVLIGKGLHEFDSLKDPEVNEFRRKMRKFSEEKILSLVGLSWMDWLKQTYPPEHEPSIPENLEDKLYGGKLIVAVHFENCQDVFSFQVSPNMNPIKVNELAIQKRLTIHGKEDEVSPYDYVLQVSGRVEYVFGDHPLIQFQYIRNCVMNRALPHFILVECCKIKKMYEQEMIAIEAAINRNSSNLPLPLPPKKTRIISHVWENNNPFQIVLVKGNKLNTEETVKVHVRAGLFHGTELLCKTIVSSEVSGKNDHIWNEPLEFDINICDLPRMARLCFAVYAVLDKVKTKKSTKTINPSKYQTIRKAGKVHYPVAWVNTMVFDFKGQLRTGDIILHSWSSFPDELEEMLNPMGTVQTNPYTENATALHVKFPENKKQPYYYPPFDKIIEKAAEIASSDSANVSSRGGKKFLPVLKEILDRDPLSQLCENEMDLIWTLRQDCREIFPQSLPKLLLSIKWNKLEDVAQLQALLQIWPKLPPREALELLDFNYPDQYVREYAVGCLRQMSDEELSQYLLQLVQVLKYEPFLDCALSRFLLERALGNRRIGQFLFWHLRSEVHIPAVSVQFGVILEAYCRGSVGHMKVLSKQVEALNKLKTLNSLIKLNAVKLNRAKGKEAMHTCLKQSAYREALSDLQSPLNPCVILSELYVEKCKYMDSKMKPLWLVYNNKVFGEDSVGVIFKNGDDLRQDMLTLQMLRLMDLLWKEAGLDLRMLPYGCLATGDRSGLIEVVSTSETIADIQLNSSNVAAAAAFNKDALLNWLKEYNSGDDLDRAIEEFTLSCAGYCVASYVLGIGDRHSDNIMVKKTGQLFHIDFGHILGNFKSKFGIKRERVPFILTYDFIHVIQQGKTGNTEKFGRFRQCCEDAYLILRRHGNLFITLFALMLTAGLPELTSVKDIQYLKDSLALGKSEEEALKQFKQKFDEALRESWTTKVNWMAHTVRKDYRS
Sequence of PI3Kβ (P27986 whole entry partner, species assumed): as the sequence (P27986 whole entry partner, species assumed) above
Procedure: as §1, with “60” for “0.8”, “β,” for “α, an inhibition ratio was calculated by”, “activity was used to calculate an inhibition ratio, which was” for “activity, and then”, “PI3Kβ” for “PI3Kα”
According to Example 4 above, a Km value for PI3Kβ was determined to calculate a Ki value.

[1] = tested on: CYP1A2, CYP2C9, CYP2C19, CYP2D6 and CYP3A4 (one value for the five species); test: CYP inhibition test, five CYP species together (5CYPs_IC50; pooled human liver microsome); assay type: in vitro ADME; details: human, microsomes
In short: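 Pooled human liver microsomes (0.2 mg/mL) in 50 mM Hepes were incubated with a substrate cocktail of 0.5 μM ethoxyresorufin, 100 μM tolbutamide, 50 μM S-mephenytoin, 5 μM dextromethorphan and 1 μM terfenadine plus NADPH for 15 min at 37 °C. Compound tested at 1–20 μM (4 points). Metabolites read by fluorescence or LC/MS/MS, and IC50 derived by logistic fit against a DMSO control.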

[2] = class symbols, read-out: PI3K α Ki
[3] = class symbols, read-out: PI3K γ Ki
[4] = class symbols, read-out: PI3K δ Ki
[5] = class symbols, read-out: PI3K β Ki

Sequence of PI3Kα (P42336 whole entry, species assumed): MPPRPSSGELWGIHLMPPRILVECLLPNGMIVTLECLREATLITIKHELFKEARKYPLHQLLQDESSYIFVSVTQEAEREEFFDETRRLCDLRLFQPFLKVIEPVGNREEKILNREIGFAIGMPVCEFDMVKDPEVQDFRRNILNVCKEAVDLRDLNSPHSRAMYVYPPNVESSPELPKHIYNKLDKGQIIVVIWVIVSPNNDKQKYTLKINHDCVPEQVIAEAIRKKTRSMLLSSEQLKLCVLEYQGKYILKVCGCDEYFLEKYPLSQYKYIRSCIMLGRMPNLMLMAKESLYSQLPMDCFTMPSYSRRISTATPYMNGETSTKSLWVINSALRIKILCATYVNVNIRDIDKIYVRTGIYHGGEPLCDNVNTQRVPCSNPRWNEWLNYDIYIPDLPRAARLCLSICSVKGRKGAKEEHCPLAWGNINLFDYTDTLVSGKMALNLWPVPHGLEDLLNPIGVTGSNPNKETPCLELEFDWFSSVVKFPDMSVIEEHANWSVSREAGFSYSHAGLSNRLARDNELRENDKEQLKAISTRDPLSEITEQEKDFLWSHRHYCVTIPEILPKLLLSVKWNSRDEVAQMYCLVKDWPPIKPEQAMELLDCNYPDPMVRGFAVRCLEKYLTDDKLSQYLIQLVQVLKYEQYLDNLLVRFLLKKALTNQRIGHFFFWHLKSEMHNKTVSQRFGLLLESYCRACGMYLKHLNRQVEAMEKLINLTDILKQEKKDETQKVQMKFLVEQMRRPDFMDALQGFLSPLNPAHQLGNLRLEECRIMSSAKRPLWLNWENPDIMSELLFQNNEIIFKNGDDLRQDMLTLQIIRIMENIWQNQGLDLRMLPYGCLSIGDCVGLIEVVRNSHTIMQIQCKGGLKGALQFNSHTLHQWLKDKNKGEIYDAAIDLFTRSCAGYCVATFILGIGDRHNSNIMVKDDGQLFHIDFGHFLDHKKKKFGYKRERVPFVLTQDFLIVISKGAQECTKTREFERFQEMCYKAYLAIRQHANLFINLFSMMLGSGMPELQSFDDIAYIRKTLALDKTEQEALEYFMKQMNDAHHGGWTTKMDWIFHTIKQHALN
Sequence of PI3Kα (P27986 whole entry partner, species assumed): as the sequence (P27986 whole entry partner, species assumed) above

SMILES | Ki (PI3Kα; [2]) | Ki (PI3Kα; read-out: PI3Kα Ki value) | Ki (PI3Kγ; [3]) | Ki (PI3Kγ; read-out: PI3Kγ Ki value) | Ki (PI3Kδ; [4]) | Ki (PI3Kδ; read-out: PI3Kδ Ki value) | Ki (PI3Kβ; [5]) | Ki (PI3Kβ; read-out: PI3Kβ Ki value) | IC50 at 15 min [1]
Cc1nc(NC(=O)Nc2ccccc2C(=O)NC(C)C)sc1-c1csc(S(=O)(=O)N(C)CCN(C)C)c1 [Compound I-191] |  |  |  | 0.3 µM |  |  |  |  | ≥ 10 µM
C[C@@H](CO)NC(=O)c1ccccc1NC(=O)Nc1nc2c(s1)CN(c1cncc(S(C)(=O)=O)c1)CC2 [Compound I-211] |  |  |  |  |  |  |  |  | ≥ 10 µM
COc1cncc(-c2cc(NC(=O)Nc3ccccc3C(=O)NC(C)C)nn2C)c1 [Compound I-226] | > 3 µM |  | ≤ 3 µM | 0.83 µM | ≤ 3 µM |  | > 3 µM |  | ≥ 10 µM
Cc1nc(NC(=O)Nc2ccccc2C(=O)NC(C)C)sc1-c1ccc(S(C)(=O)=O)c(F)c1 [Compound I-127] | > 3 µM | > 7 µM | ≤ 0.03 µM | 0.016 µM | ≤ 0.3 µM | 0.081 µM | ≤ 3 µM | 0.34 µM | 
COc1cncc(-c2ccc3nc(NC(=O)Nc4ccccc4OCCC(C)C)cn3n2)c1 [Compound I-114] | ≤ 3 µM | 1.1 µM | ≤ 0.3 µM | 0.033 µM | ≤ 3 µM | 2 µM | ≤ 3 µM | 0.66 µM | > 20 µM
CC(C)NC(=O)c1ccccc1NC(=O)Nc1nc2c(s1)CN(c1cccc(S(C)(=O)=O)c1)CC2 [Compound I-198] |  |  |  |  |  |  |  |  | > 20 µM

More lines, now with the values ahead:

Ki (PI3Kα; [2]) | Ki (PI3Kα; read-out: PI3Kα Ki value) | Ki (PI3Kγ; [3]) | Ki (PI3Kγ; read-out: PI3Kγ Ki value) | Ki (PI3Kδ; [4]) | Ki (PI3Kδ; read-out: PI3Kδ Ki value) | Ki (PI3Kβ; [5]) | Ki (PI3Kβ; read-out: PI3Kβ Ki value) | IC50 at 15 min [1] | SMILES
> 3 µM | > 12 µM | ≤ 0.03 µM | 0.0096 µM | ≤ 3 µM | 0.59 µM | ≤ 3 µM | 0.34 µM |  | COc1cc(N2CCc3nc(NC(=O)Nc4ccccc4C(=O)NC(C)C)sc3C2)nc(OC)n1 [Compound I-12]
 |  |  |  |  |  |  |  | ≥ 10 µM | COc1cc(N2CCc3nc(NC(=O)Nc4ccccc4C(=O)NCCF)sc3C2)nc(OC)n1 [Compound I-88]
> 3 µM |  | ≤ 0.003 µM | 0.0014 µM | ≤ 3 µM |  | ≤ 3 µM |  | ≥ 10 µM | COc1nc(Cl)cc(N2CCc3nc(NC(=O)Nc4cnccc4C(=O)NC(C)C)sc3C2)n1 [Compound I-91]
≤ 3 µM |  | ≤ 0.03 µM | 0.0055 µM | ≤ 0.3 µM |  | ≤ 0.3 µM |  |  | COc1cc(N2CCc3nc(NC(=O)Nc4cn(C)nc4C(=O)NCC(F)(F)F)sc3C2)nc(OC)n1 [Compound I-148]
> 3 µM |  | ≤ 0.003 µM | 0.0008 µM | > 3 µM |  | > 3 µM |  | ≥ 10 µM | CC(C)NC(=O)c1ccccc1NC(=O)Nc1nc2c(s1)CN(c1cncc(C(F)(F)F)c1)CC2 [Compound I-131]
 |  |  |  |  |  |  |  | > 20 µM | COc1cc(N2CCc3nc(NC(=O)Nc4ccccc4C(=O)NC4CCOCC4)sc3C2)nc(OC)n1 [Compound I-203]
> 3 µM |  | ≤ 0.003 µM | 0.0023 µM | > 3 µM |  | > 3 µM |  |  | COc1nc(Cl)cc(N2CCc3nc(NC(=O)Nc4ccccc4C(=O)NC4CCCOC4)sc3C2)n1 (centres unmarked) [Compound I-197]
